Results from the supplement of paper PMC10307832.

Columns and labels:
Assay in all cases: relative viability (nuclei count vs DMSO), 5 days (fraction); higher = more cells survive
[1] = test system: HCC-44
Method in brief: (§1)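 A single step with final 0.05% Triton X-100, 1% formaldehyde and 1 ug/ml Hoechst fixed the cells and stained nuclei 5 days after treatment. Lung cancer cell lines in 1536-well plates had been treated by pin tool the day after seeding with one drug alone or a fixed anchor-drug dose plus five library-drug doses (not always all listed) in √10 steps, and nuclei were counted on 4× images. Relative viability is the ratio of nuclei in treated wells to nuclei in vehicle wells, taken as the median of duplicate plates.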

[2] = test system: NCI-H2087
Method in brief: as §1

[3] = test system: NCI-H1648
Method in brief: as §1

[4] = test system: HCC-78
Method in brief: as §1

[5] = test system: NCI-H322M
Method in brief: as §1

[6] = test system: A549
Method in brief: as §1

[7] = test system: IA-LM
Method in brief: as §1

[8] = test system: NCI-H1703
Method in brief: as §1

Cc1cn(-c2cc(NC(=O)c3ccc(C)c(Nc4nccc(-c5cccnc5)n4)c3)cc(C(F)(F)F)c2)cn1 [Nilotinib] + Nc1ncn([C@H]2C[C@H](O)[C@@H](CO)O2)c(=O)n1 [Decitabine] (partner 2 µM)
relative viability ([1]; first compound 0.001 µM): 0.922 | relative viability ([1]; first compound 0.003162 µM): 0.945 | relative viability ([1]; first compound 0.01 µM): 0.969 | relative viability ([1]; first compound 0.1 µM): 0.918 | relative viability ([2]; first compound 0.001 µM): 0.202 | relative viability ([2]; first compound 0.003162 µM): 0.244 | relative viability ([2]; first compound 0.01 µM): 0.261 | relative viability ([2]; first compound 0.03162 µM): 0.18 | relative viability ([2]; first compound 0.1 µM): 0.131 | relative viability ([3]; first compound 0.001 µM): 0.588 | relative viability ([3]; first compound 0.003162 µM): 0.496 | relative viability ([3]; first compound 0.01 µM): 0.476 | relative viability ([3]; first compound 0.03162 µM): 0.497 | relative viability ([3]; first compound 0.1 µM): 0.469 | relative viability ([4]; first compound 0.001 µM): 0.702 | relative viability ([4]; first compound 0.003162 µM): 0.576 | relative viability ([4]; first compound 0.01 µM): 0.666 | relative viability ([4]; first compound 0.03162 µM): 0.669 | relative viability ([4]; first compound 0.1 µM): 0.658 | relative viability ([5]; first compound 0.001 µM): 0.724 | relative viability ([5]; first compound 0.003162 µM): 0.786 | relative viability ([5]; first compound 0.01 µM): 0.673 | relative viability ([5]; first compound 0.03162 µM): 0.654 | relative viability ([5]; first compound 0.1 µM): 0.898 | relative viability ([6]; first compound 0.001 µM): 0.199 | relative viability ([6]; first compound 0.01 µM): 0.386 | relative viability ([6]; first compound 0.03162 µM): 0.198 | relative viability ([6]; first compound 0.1 µM): 0.116

Cc1cn(-c2cc(NC(=O)c3ccc(C)c(Nc4nccc(-c5cccnc5)n4)c3)cc(C(F)(F)F)c2)cn1 [Nilotinib] + O=C(CCCCCCC(=O)Nc1ccccc1)NO [Vorinostat] (partner 1 µM)
relative viability ([1]; first compound 0.001 µM): 1.07 | relative viability ([1]; first compound 0.003162 µM): 1.06 | relative viability ([1]; first compound 0.01 µM): 1.09 | relative viability ([1]; first compound 0.1 µM): 1.07 | relative viability ([2]; first compound 0.001 µM): 0.707 | relative viability ([2]; first compound 0.003162 µM): 0.709 | relative viability ([2]; first compound 0.01 µM): 1.23 | relative viability ([2]; first compound 0.03162 µM): 0.567 | relative viability ([2]; first compound 0.1 µM): 0.543 | relative viability ([7]; first compound 0.001 µM): 0.526 | relative viability ([7]; first compound 0.01 µM): 0.987 | relative viability ([7]; first compound 0.03162 µM): 0.352 | relative viability ([7]; first compound 0.1 µM): 0.841 | relative viability ([3]; first compound 0.001 µM): 0.394 | relative viability ([3]; first compound 0.003162 µM): 0.367 | relative viability ([3]; first compound 0.01 µM): 0.372 | relative viability ([3]; first compound 0.03162 µM): 0.172 | relative viability ([4]; first compound 0.001 µM): 0.483 | relative viability ([4]; first compound 0.003162 µM): 0.512 | relative viability ([4]; first compound 0.01 µM): 0.553 | relative viability ([4]; first compound 0.03162 µM): 0.4 | relative viability ([4]; first compound 0.1 µM): 0.565 | relative viability ([5]; first compound 0.001 µM): 0.896 | relative viability ([5]; first compound 0.003162 µM): 0.68 | relative viability ([5]; first compound 0.01 µM): 0.962 | relative viability ([5]; first compound 0.03162 µM): 0.848 | relative viability ([5]; first compound 0.1 µM): 0.913

CN1CCN(CCOc2cc(OC3CCOCC3)c3c(Nc4c(Cl)ccc5c4OCO5)ncnc3c2)CC1 [Saracatinib] + NC(=O)Nc1cc(-c2cccc(F)c2)sc1C(=O)N[C@H]1CCCNC1 [AZD7762] (partner 0.2 µM)
relative viability ([1]; first compound 0.02 µM): 1.07 | relative viability ([1]; first compound 0.2 µM): 0.941 | relative viability ([1]; first compound 0.6325 µM): 1.03 | relative viability ([1]; first compound 2 µM): 1.01 | relative viability ([8]; first compound 0.02 µM): 0.136 | relative viability ([8]; first compound 0.6325 µM): 0.129 | relative viability ([8]; first compound 2 µM): 0.114 | relative viability ([2]; first compound 0.02 µM): 1.33 | relative viability ([2]; first compound 0.2 µM): 1.13 | relative viability ([2]; first compound 0.6325 µM): 1.76 | relative viability ([2]; first compound 2 µM): 1.31 | relative viability ([3]; first compound 0.02 µM): 0.79 | relative viability ([3]; first compound 0.2 µM): 0.633 | relative viability ([3]; first compound 0.6325 µM): 0.865 | relative viability ([3]; first compound 2 µM): 0.379 | relative viability ([4]; first compound 0.02 µM): 0.583 | relative viability ([4]; first compound 0.6325 µM): 0.774 | relative viability ([4]; first compound 2 µM): 0.421 | relative viability ([5]; first compound 0.02 µM): 0.593 | relative viability ([5]; first compound 0.2 µM): 0.498 | relative viability ([5]; first compound 0.6325 µM): 0.552 | relative viability ([5]; first compound 2 µM): 0.353

CN1CCN(CCOc2cc(OC3CCOCC3)c3c(Nc4c(Cl)ccc5c4OCO5)ncnc3c2)CC1 [Saracatinib] + Nc1ncn([C@H]2C[C@H](O)[C@@H](CO)O2)c(=O)n1 [Decitabine] (partner 2 µM)
relative viability ([1]; first compound 0.02 µM): 0.964 | relative viability ([1]; first compound 0.2 µM): 0.854 | relative viability ([1]; first compound 0.6325 µM): 0.994 | relative viability ([1]; first compound 2 µM): 0.94 | relative viability ([2]; first compound 0.02 µM): 0.322 | relative viability ([2]; first compound 0.2 µM): 0.226 | relative viability ([2]; first compound 0.6325 µM): 0.27 | relative viability ([2]; first compound 2 µM): 0.293 | relative viability ([3]; first compound 0.02 µM): 0.534 | relative viability ([3]; first compound 0.2 µM): 0.367 | relative viability ([3]; first compound 0.6325 µM): 0.647 | relative viability ([3]; first compound 2 µM): 0.391 | relative viability ([4]; first compound 0.02 µM): 0.524 | relative viability ([4]; first compound 0.6325 µM): 0.736 | relative viability ([4]; first compound 2 µM): 0.686 | relative viability ([5]; first compound 0.02 µM): 0.79 | relative viability ([5]; first compound 0.2 µM): 0.473 | relative viability ([5]; first compound 0.6325 µM): 0.659 | relative viability ([5]; first compound 2 µM): 0.409 | relative viability ([6]; first compound 0.02 µM): 0.266 | relative viability ([6]; first compound 0.6325 µM): 0.279 | relative viability ([6]; first compound 2 µM): 0.237

CN1CCN(CCOc2cc(OC3CCOCC3)c3c(Nc4c(Cl)ccc5c4OCO5)ncnc3c2)CC1 [Saracatinib] + O=C(CCCCCCC(=O)Nc1ccccc1)NO [Vorinostat] (partner 1 µM)
relative viability ([1]; first compound 0.02 µM): 1.14 | relative viability ([1]; first compound 0.2 µM): 1.14 | relative viability ([1]; first compound 0.6325 µM): 1 | relative viability ([1]; first compound 2 µM): 1.19 | relative viability ([2]; first compound 0.02 µM): 0.696 | relative viability ([2]; first compound 0.2 µM): 0.564 | relative viability ([2]; first compound 0.6325 µM): 0.54 | relative viability ([2]; first compound 2 µM): 0.95 | relative viability ([7]; first compound 0.02 µM): 1.01 | relative viability ([7]; first compound 0.6325 µM): 1.4 | relative viability ([7]; first compound 2 µM): 0.798 | relative viability ([3]; first compound 0.02 µM): 0.338 | relative viability ([3]; first compound 0.2 µM): 0.352 | relative viability ([3]; first compound 0.6325 µM): 0.782 | relative viability ([3]; first compound 2 µM): 0.433 | relative viability ([4]; first compound 0.02 µM): 0.459 | relative viability ([4]; first compound 0.6325 µM): 0.476 | relative viability ([4]; first compound 2 µM): 0.427 | relative viability ([5]; first compound 0.02 µM): 0.73 | relative viability ([5]; first compound 0.2 µM): 0.744 | relative viability ([5]; first compound 0.6325 µM): 0.702 | relative viability ([5]; first compound 2 µM): 0.37
